Earlier results in article PMC6504684 (Frontiers in Pharmacology, 2019).

Test system: α9α10 nAChRs, mutation α9-Asp121Leu
Settings: cited from earlier work

SMILES: CC(=O)OCC[N+](C)(C)C [ACh, acetylcholine]
- increase of EC50: ~30 times
